Laboratory results reported in patent US20130190251A1, “METHOD FOR PREDICTING THE RESPONSIVENESS TO CHEMOTHERAPY” (priority 2010, published 2013).
Entries after “also recorded” stand apart in the source; their conditions may differ.

What was measured:
Format in all cases: cell-based
[1] = system: HL-60 cells resistant to daunorubicin (HL60R); experiment: Apoptosis by mitochondrial depolarization after DiOC6 labeling, HL60R; conditions: 15-hour incubation, gliotoxin 1 mg/ml or p21 peptide 50 mM
Method: (§1) FIG. 7. The p21 peptide restores apoptosis in daunorubicin-resistant HL60 cells. HL60S and HL60R were incubated overnight with the p21 peptide (50 mM) or with gliotoxin (1 mg/ml). After a 15-hour incubation, the effect of the p21 peptide on the percentage of apoptotic HL60 cells was measured by mitochondrial depolarization after DiOC6 labeling and by DNA fragmentation after propidium iodide labeling. Data are means±SEM of 5 independent experiments.
(§2) Apoptosis in HL-60 cells sensitive to daunorubicin (HL60S) was compared to apoptosis in HL-60 cells resistant to daunorubicin (HL60R). Apoptosis was induced either by gliotoxin that triggers apoptosis by targeting the mitochondria or the p21 peptide. The p21 peptide corresponds to residues 141 to 160 of p21 fused to the cell penetrating peptide RYIRS. HL60S and HL60R were incubated overnight with the p21 peptide (50 mM) or with gliotoxin (1 mg/ml). After a 15-hour incubation, the effect of the p21 peptide on the percentage of apoptotic HL60 cells was measured by mitochondrial depolarization after DiOC6 labeling and by DNA fragmentation after propidium iodide labeling (FIG. 7).

[2] = system: HL-60 cells sensitive to daunorubicin (HL60S); experiment: Apoptosis by DNA fragmentation after propidium iodide labeling, HL60S; conditions: 15-hour incubation, gliotoxin 1 mg/ml or p21 peptide 50 mM
Method: as §1, §2

[3] = system: HL-60 cells resistant to daunorubicin (HL60R); experiment: Apoptosis by DNA fragmentation after propidium iodide labeling, HL60R; conditions: 15-hour incubation, gliotoxin 1 mg/ml or p21 peptide 50 mM
Method: as §1, §2

[4] = system: K562-doxorubicin resistant cells; experiment: Analysis of drug resistance by DIOC2 efflux, K562 resistant; conditions: cisplatin 2.5 μg/ml, DIOC2 50 ng/ml, 30 min at 37° C., FACS
Method: (§3) FIG. 6. Acquisition of drug resistance of myelocytic leukemia cell line K562 by doxorubicin. Analysis of inhibition by cisplatin of DIOC2 incorporation in myelocytic leukemia K562 cell line. Drug resistance is mediated by ABC transporters such as P-glycoprotein (P-gp) K562 cells were incubated with DIOC2 with or without cisplatin, and the fluorescence of DIOC2 incorporated in cells was assessed by FACS. In K562-doxorubicin sensitive cells, high fluorescence of DIOC2 is observed because of the lack of efflux. No effect of cisplatin is observed consistent with an absence of ABC transporter-mediated drug resistance.
(§4) The assay is based on the efflux of fluorescent P-gp substrate DiOC2 (3-ethyl-2-[3-(3-ethyl-2(3H)-benzoxazolylidene)-1-propenyl]benzoxazolium iodide) in doxorubicin-resistant cells, which can be inhibited by cisplatin. This efflux is absent in doxorubicin-sensitive cells resulting in an accumulation of DIOC2. DIOC2 fluorescence is measured by flow cytometry. Briefly, K562 at 1×10^6 cellules/ml were treated by cisplatin (2.5 μg/ml) in the presence of DIOC2 (50 ng/ml) for 30 min at 37° C. The cells are analyzed by flow cytometry.

[5] = system: K562-doxorubicin sensitive cells; experiment: Analysis of drug resistance by DIOC2 efflux, K562 sensitive; conditions: cisplatin 2.5 μg/ml, DIOC2 50 ng/ml, 30 min at 37° C., FACS
Method: as §3, §4

[6] = system: HL-60 cells sensitive to daunorubicin (HL60S); experiment: Apoptosis by mitochondrial depolarization after DiOC6 labeling, HL60S; conditions: 15-hour incubation, gliotoxin 1 mg/ml or p21 peptide 50 mM
Method: as §1, §2

| Compound | mitochondria depolarization in HL60R (percentage of apoptotic HL60 cells) [1] | DNA fragmentation in HL60S (percentage of apoptotic HL60 cells) [2] | DNA fragmentation in HL60S (percentage of apoptotic HL60 cells) ([2]; listed as gliotoxin) | DNA fragmentation in HL60R (percentage of apoptotic HL60 cells) [3] | effect on DIOC2 efflux (fluorescence of DIOC2 incorporated in cells) [4] | effect on fluorescence of DIOC2 incorporated in cells [5] | mitochondria depolarization in HL60S (percentage of apoptotic HL60 cells) [6] |
| --- | --- | --- | --- | --- | --- | --- | --- |
| CN1C(=O)[C@]23CC4=CC=C[C@H](O)[C@H]4N2C(=O)[C@@]1(CO)SS3 [Gliotoxin, gliotoxin] | no effect on HL60R | triggers mitochondria depolarization and DNA fragmentation in HL60S | induces apoptosis in HL60S | no effect on HL60R |  |  |  |
| N.N.[Cl][Pt][Cl] [cisplatin] |  |  |  |  | efflux which was reversed | No effect |  |
| p21 peptide: residues 141 to 160 of p21 fused to the cell penetrating peptide RYIRS (KRRQTSMTDFYHSKRRLIFSRYIRS; Synthetic peptide based on residues 141 to 160 of p21 fused to the RYIRS tag) | low but significant mitochondria depolarization |  |  | induces DNA fragmentation in HL60R more potently than in HL60S; also recorded: inducing DNA fragmentation in HL60R more potently than in HL60S |  |  | more modest effect |
